Source: US20130281497A1, “MACROCYCLIC COMPOUNDS AND METHODS OF TREATMENT” (University of Florida Research Foundation, Inc., priority 2010, published 2013)
Marks after values point to notes of the source that are not given here.

Assays:
RAW264.7 cells = test: Osteoclastogenesis (RANKL-induced TRAP activity, multinucleated osteoclasts); type: cell-based
Method: FIG. 2 depicts activity of compound I (LA-1) and compound 8 (LA-3) on osteoclastogenesis. FIG. 2: (A) Effects of test compounds on the RANKL-induced TRAP activity. (B) Effects of test compounds on the RANKL-induced formation of TRAP-positive multinucleated osteoclasts. Effects of test compounds on osteoclast differentiation was evaluated in RAW264.7 cells. RAW264.7 cells were plated in 96-well plates at the density 1×10^3 and then serially diluted LA compounds were treated and incubated until multinucleated osteoclasts were observed under a microscope.
RAW264.7 cells were purchased from the ATCC and maintained in DMEM supplemented with 10% FBS, 100 U/ml of penicillin, and 100 μg/ml streptomycin with a change of medium every 3 days in humidified atmosphere of 5% CO2 in air at 37° C. For the osteoclast differentiation, RAW264.7 cells were suspended in α-minimal essential medium (α-MEM) supplemented with 10% FBS and 100 ng/ml RANKL (R&D Systems Inc., MN) and plated in a 96-well plate at 1×10^3 cells/well. The next day, cells were treated with largazole and then after an additional 3 days, multinucleated osteoclasts were observed.
Multinucleated osteoclasts were fixed with 10% formalin for 10 min and ethanol/acetone (1:1) for 1 min, and then stained by Leukocyte Acid Phosphatase Kit 387-A (Sigma, Mo.). […] Absorbance was measured at 410 nm, and TRAP activity was presented as % of control. […]

Runx2 = Runx2 luciferase reporter assay (p6xOSE2-luc); type: cell-based
Method: FIG. 1. depicts activity of compound I (LA-1) and compound 8 (LA-3) on osteoblast differentiation. FIG. 1: (A) The effects of test compounds (up to 500 nM) on osteoblast differentiation were evaluated by ALP staining. (B) The effect of test compounds (up to 50 nM) on osteoblast differentiation were evaluated by ALP staining. MS-275 was used as a positive control. The effects of test compounds on cell viability (C) and RUNX2 activity (D) were evaluated by CCK-8 assay and 6×OSE2-luciferase activity assay, respectively.
To measure Runx2 activity, p6×osteoblast-specific cis-acting element (OSE) 2-luc reporter vector was transiently transfected into C2C12 cells that were seeded in a 96-well plate at 5×10^3 cells/well as described previously (Kim et al., J. Cell Biochem. 2004, 9, 1239-1247). After 24 h, medium was replaced with DMEM containing 5% FBS with or without tanshinone IIA and/or BMP-2. After 24 h, the cells were lysed, and luciferase activity was measured using luciferase reporter assay system (Promega) and the Wallac EnVision microplate reader.

calvarial bones of mice = test: In vivo murine calvarial bone formation assay
Method: In vivo bone-forming activity of largazole was evaluated using lyophilized collagen sponges as described previously. […] Three weeks after drug implantation, the calvarias were harvested, fixed in 4% paraformaldehyde, decalcified in 12% EDTA, embedded in paraffin, and sectioned. Sections were deparaffinized through graded xylene washes, […] in a graded series of ethanol washes, and stained with hematoxylin and eosin (H&E).

C2C12 cells = test: mRNA induction of osteoblastogenesis markers and BMPs by quantitative real-time PCR; type: cell-based; conditions: for ALP mRNA level, fold change relative to the control / BMP-2 mRNA level, fold change relative to the control / BMP-4 mRNA level, fold change relative to the control / BMP-6 mRNA level, fold change relative to the control / BMP-7 mRNA level, fold change relative to the control / BMP-9 mRNA level, fold change relative to the control / OPN mRNA level, fold change relative to the control / RUNX2 mRNA level, fold change relative to the control: 6 days, C2C12 cells, mean ± SD
Method: Primers were designed using an on-line primer design program (Table 1). (S. Rozen, H. J. Skaletsky, Methods Mol. Biol. 2000, 132, 365-386.) Total RNA was isolated using TRIzol reagent (Life Technologies, MD) according to manufacturer's protocol. The concentration and purity of total RNA were calculated by measuring absorbance at 260 and 280 nm. First strand cDNA was synthesized using 2 μg of total RNA and 1 μM of oligo-dT18 primer and Omniscript Reverse Transcriptase (Qiagen, CA). SYBR green-based quantitative PCR was performed using the Stratagene Mx3000P Real-Time PCR system and Brilliant SYBR Green Master Mix (Stratagene, CA) with 3 μl of first-strand cDNA diluted 1:50 and 20 pmole of primers, according to the manufacturer's protocols. The PCR reaction consisted of three segments. The first segment (95° C. for 10 min) activated the polymerase; the second segment included 3-step cycling (40 cycles) at 94° C. for 40 sec (denaturation), 60° C. for 40 sec (annealing), and 72° C. for 1 min (extension); the third segment was performed to generate PCR product temperature dissociation curves (‘melting curves’) at 95° C. for 1 min, 55° C. for 30 sec, 95° C. for 30 sec. All reactions were run in triplicate, and data were analyzed by the 2^−ΔΔCT method (K. J. Livak, T. D. Schmittgen, Methods 2001, 25, 402-408.). GAPDH was used as the control gene. Significance was determined by Student's t-test with GAPDH-normalized 2^−ΔΔCT values. Differences were considered significant when P<0.05.

calvaria bone = test: In vivo bone regeneration model (calvaria bone defects); design: species or system rabbits
Method: All rabbits are anesthetized with an intramuscular dose of 0.1 ml/kg Zoletil (Virbac, France). The head is shaved, and the cutaneous surface is disinfected with povidone iod solution prior to the operation. The calvaria bone is exposed through a skin incision of ˜4 cm in length. Four similar circular bicortical defects (3-mm diameter) are made in the parietal bone using a trephine on a slow-speed electric handpiece, applying 0.9% physiologic saline irrigation. Defects are filled with 10 mg of bone graft substitute, MBCP (Biomatlante, France) soaked with 50 μl of PBS or LA-1. Closure of periosteum and subcutaneous tissues is done with lactomer (Syneture), while the skin is relocated with nylon:polyamide (Syneture). Postoperative antibiotics are administered, e.g., Gentamycin. Rabbits are sacrificed at 4 weeks after surgery.

Structure (SMILES): CCCCCCCC(=O)SCC/C=C/[C@@H]1CC(=O)NCc2nc(cs2)C2=N[C@@](C)(CS2)C(=O)N[C@@H](C(C)C)C(=O)O1 [Largazole, largazole]
- inhibition of osteoclastogenesis (RAW264.7 cells): potential to inhibit the osteoclastogenesis
- activity of RUNX2 (6×OSE2-luciferase activity assay) (Runx2; FIG. 1D): strongly induced the activity of RUNX2
- increase of Runx2 activity relative to the DMSO control (Runx2; largazole at 50 nM, p6×OSE2-luciferase reporter): 29 fold
- woven bone formation at lower (50 μM) versus higher (100 μM) concentration (calvarial bones of mice; 50 μM compared with 100 μM, collagen sponge implant): more significant than that at the higher concentration
- woven bone formation over the periosteum of the calvarial bones (calvarial bones of mice; collagen sponges soaked with largazole implanted, three weeks): induced woven bone formation
- ALP mRNA level, fold change relative to the control (C2C12 cells; largazole 1 nM): 1.85 ± 0.06^a fold
- BMP-2 mRNA level, fold change relative to the control (C2C12 cells; largazole 1 nM): 2.15 ± 0.42^b fold
- BMP-4 mRNA level, fold change relative to the control (C2C12 cells; largazole 1 nM): 0.91 ± 0.22 fold
- BMP-6 mRNA level, fold change relative to the control (C2C12 cells; largazole 1 nM): 1.69 ± 0.12^b fold
- BMP-7 mRNA level, fold change relative to the control (C2C12 cells; largazole 1 nM): 5.05 ± 0.31^c fold
- BMP-9 mRNA level, fold change relative to the control (C2C12 cells; largazole 1 nM): 5.18 ± 0.74^c fold
- OPN mRNA level, fold change relative to the control (C2C12 cells; largazole 1 nM): 1.33 ± 0.19 fold
- RUNX2 mRNA level, fold change relative to the control (C2C12 cells; largazole 1 nM): 2.47 ± 0.39^b fold
- ALP mRNA level, fold change relative to the control (C2C12 cells; largazole 50 nM): 324.04 ± 1.59^c fold
- BMP-2 mRNA level, fold change relative to the control (C2C12 cells; largazole 50 nM): 6.29 ± 0.98^c fold
- BMP-4 mRNA level, fold change relative to the control (C2C12 cells; largazole 50 nM): 2.38 ± 0.91^a fold
- BMP-6 mRNA level, fold change relative to the control (C2C12 cells; largazole 50 nM): 7.15 ± 1.33^b fold
- BMP-7 mRNA level, fold change relative to the control (C2C12 cells; largazole 50 nM): 17.12 ± 2.59^c fold
- BMP-9 mRNA level, fold change relative to the control (C2C12 cells; largazole 50 nM): 12.14 ± 3.17^b fold
- OPN mRNA level, fold change relative to the control (C2C12 cells; largazole 50 nM): 2.28 ± 0.12^b fold
- RUNX2 mRNA level, fold change relative to the control (C2C12 cells; largazole 50 nM): 3.66 ± 1.19^a fold
- ALP mRNA level, fold change relative to the control (C2C12 cells; largazole 100 nM): 263.33 ± 11.61^b fold
- BMP-2 mRNA level, fold change relative to the control (C2C12 cells; largazole 100 nM): 6.34 ± 1.16^b fold
- BMP-4 mRNA level, fold change relative to the control (C2C12 cells; largazole 100 nM): 3.48 ± 1.63 fold
- BMP-6 mRNA level, fold change relative to the control (C2C12 cells; largazole 100 nM): 8.37 ± 0.88^c fold
- BMP-7 mRNA level, fold change relative to the control (C2C12 cells; largazole 100 nM): 10.72 ± 1.90^c fold
- BMP-9 mRNA level, fold change relative to the control (C2C12 cells; largazole 100 nM): 10.18 ± 2.22^b fold
- OPN mRNA level, fold change relative to the control (C2C12 cells; largazole 100 nM): 0.83 ± 0.04^a fold
- RUNX2 mRNA level, fold change relative to the control (C2C12 cells; largazole 100 nM): 2.06 ± 0.00^c fold
- increase of Runx2 mRNA level relative to the DMSO control (C2C12 cells; largazole at 50 nM, real-time PCR): 3 fold
- mRNA expression levels of BMPs (BMP-2, 4, 6, 7, and 9) (C2C12 cells; real-time PCR): significantly induced
- anabolic bone forming activity in vivo (calvaria bone): exhibited anabolic bone forming activity
